Earlier results as cited in paper PMC8513935.

Legend:
[1] = log P octanol/water from commercial databases, averaged (the ESI); settings: Octanol (wet), 25 C
[2] = experimental, compiled by the authors from the literature (the ESI cites the sources)
[3] = derived by the authors as gas->solvent minus gas->water (a hypothetical dry solvent; the ESI), not a two-phase measurement

Structure (SMILES)	log K of transfer, water to solvent [1] [log10 K]	log K of transfer, gas to solvent ([2]; Benzene, 25 C) [log10 K]	log K of transfer, gas to solvent ([2]; CCl4, 25 C) [log10 K]	log K of transfer, gas to solvent ([2]; Chloroform, 25 C) [log10 K]	log K of transfer, gas to solvent ([2]; Hexadecane, 25 C) [log10 K]	log K of transfer, gas to solvent ([2]; Water, 25 C) [log10 K]	log K of transfer, water to solvent ([3]; CCl4, 25 C) [log10 K]	log K of transfer, water to solvent ([3]; Chloroform, 25 C) [log10 K]	log K of transfer, water to solvent ([3]; Hexadecane, 25 C) [log10 K]	log K of transfer, gas to solvent ([2]; Pentan-1-ol, 25 C) [log10 K]	log K of transfer, water to solvent ([3]; Pentan-1-ol, 25 C) [log10 K]	log K of transfer, gas to solvent ([2]; Butan-1-ol, 25 C) [log10 K]	log K of transfer, gas to solvent ([2]; Chlorobenzene, 25 C) [log10 K]	log K of transfer, gas to solvent ([2]; Hexane, 25 C) [log10 K]	log K of transfer, gas to solvent ([2]; Propan-1-ol, 25 C) [log10 K]	log K of transfer, water to solvent ([3]; Chlorobenzene, 25 C) [log10 K]	log K of transfer, water to solvent ([3]; Hexane, 25 C) [log10 K]	log K of transfer, water to solvent ([3]; Propan-1-ol, 25 C) [log10 K]	log K of transfer, gas to solvent ([2]; Propan-2-ol, 25 C) [log10 K]	log K of transfer, water to solvent ([3]; Propan-2-ol, 25 C) [log10 K]	further results
CN(C)C	0.19	2.05	2.12	2.86	1.62	2.35	-0.23	0.51	-0.73	–	–	2.13	2.05	1.93	2.56	-0.3	-0.424	0.21	–	–	log K of transfer, gas to solvent ([2]; Cyclohexane, 25 C): 1.93 log10 K; log K of transfer, gas to solvent ([2]; Diethyl Ether, 25 C): 1.73 log10 K; log K of transfer, gas to solvent ([2]; Ethanol, 25 C): 2.67 log10 K; log K of transfer, gas to solvent ([2]; Octan-1-ol, 25 C): 1.94 log10 K; log K of transfer, gas to solvent ([2]; Propanone, 25 C): 1.88 log10 K; log K of transfer, gas to solvent ([2]; Toluene, 25 C): 1.99 log10 K; log K of transfer, water to solvent ([3]; Acetone, 25 C): -0.47 log10 K; log K of transfer, water to solvent ([3]; Benzene, 25 C): -0.3 log10 K; log K of transfer, water to solvent ([3]; Butan-1-ol, 25 C): -0.22 log10 K; log K of transfer, water to solvent ([3]; Cyclohexane, 25 C): -0.42 log10 K; log K of transfer, water to solvent ([3]; Diethyl Ether, 25 C): -0.62 log10 K; log K of transfer, water to solvent ([3]; Ethanol, 25 C): 0.32 log10 K; log K of transfer, water to solvent ([3]; Octan-1-ol(dry), 25 C): -0.41 log10 K; log K of transfer, water to solvent ([3]; Toluene, 25 C): -0.36 log10 K
CC(C)CC(C)(C)C	4.8	–	–	–	3.1	-2.12	–	–	5.22	2.85	4.97	–	–	–	2.69	–	–	4.81	2.7	4.82	log K of transfer, gas to solvent ([2]; 2-Methylpropan-2-ol, 25 C): 2.64 log10 K; log K of transfer, gas to solvent ([2]; Butanone, 25 C): 2.97 log10 K; log K of transfer, gas to solvent ([2]; Decan-1-ol, 25 C): 2.86 log10 K; log K of transfer, gas to solvent ([2]; Hexan-1-ol, 25 C): 2.98 log10 K; log K of transfer, gas to solvent ([2]; Tetrahydrofuran, 25 C): 3.41 log10 K; log K of transfer, water to solvent ([3]; 2-Methylpropan-2-ol, 25 C): 4.76 log10 K; log K of transfer, water to solvent ([3]; Butanone, 25 C): 5.09 log10 K; log K of transfer, water to solvent ([3]; Decan-1-ol, 25 C): 4.98 log10 K; log K of transfer, water to solvent ([3]; Hexan-1-ol, 25 C): 5.1 log10 K; log K of transfer, water to solvent ([3]; Tetrahydrofuran, 25 C): 5.53 log10 K
CC(C)(C)c1ccccc1	4.11	–	–	–	4.41	0.32	–	–	4.09	–	–	–	–	–	–	–	–	–	4.1	3.78	log K of transfer, gas to solvent ([2]; Methanol, 25 C): 4.05 log10 K; log K of transfer, gas to solvent ([2]; Tetrahydrofuran, 25 C): 5.09 log10 K; log K of transfer, water to solvent ([3]; Methanol, 25 C): 3.73 log10 K; log K of transfer, water to solvent ([3]; Tetrahydrofuran, 25 C): 4.77 log10 K
C=CCCCCC	3.99	–	–	–	3.06	-1.22	–	–	4.28	2.88	4.1	–	–	–	–	–	–	–	–	–	log K of transfer, gas to solvent ([2]; Butyronitrile, 25 C): 2.87 log10 K; log K of transfer, gas to solvent ([2]; Propionitrile, 25 C): 2.78 log10 K; log K of transfer, water to solvent ([3]; Butyronitrile, 25 C): 4.09 log10 K; log K of transfer, water to solvent ([3]; Propionitrile, 25 C): 4 log10 K
CN1CCCCC1	1.29	–	–	4.21	3.33	2.85	–	1.36	0.48	–	–	–	–	–	–	–	–	–	–	–	–
CCCCc1ccccc1	4.26	–	–	–	4.73	0.29	–	–	4.44	–	–	–	–	–	–	–	–	–	4.35	4.06	log K of transfer, gas to solvent ([2]; Ethanol, 25 C): 4.2 log10 K; log K of transfer, gas to solvent ([2]; Methanol, 25 C): 4.28 log10 K; log K of transfer, gas to solvent ([2]; Tetrahydrofuran, 25 C): 5.38 log10 K; log K of transfer, water to solvent ([3]; Ethanol, 25 C): 3.91 log10 K; log K of transfer, water to solvent ([3]; Methanol, 25 C): 3.99 log10 K; log K of transfer, water to solvent ([3]; Tetrahydrofuran, 25 C): 5.09 log10 K
CCCl	1.43	–	–	–	1.68	0.46	–	–	1.22	1.81	1.35	1.83	2.17	1.91	1.86	1.71	1.45	1.4	1.81	1.35	log K of transfer, gas to solvent ([2]; 2-Methylpropan-1-ol, 25 C): 1.78 log10 K; log K of transfer, gas to solvent ([2]; 2-Methylpropan-2-ol, 25 C): 1.79 log10 K; log K of transfer, gas to solvent ([2]; 3-Methylbutan-1-ol, 25 C): 1.78 log10 K; log K of transfer, gas to solvent ([2]; Butan-2-ol, 25 C): 1.77 log10 K; log K of transfer, gas to solvent ([2]; Methanol, 25 C): 1.93 log10 K; log K of transfer, water to solvent ([3]; 2-Methylpropan-1-ol, 25 C): 1.32 log10 K; log K of transfer, water to solvent ([3]; 2-Methylpropan-2-ol, 25 C): 1.33 log10 K; log K of transfer, water to solvent ([3]; 3-Methylbutan-1-ol, 25 C): 1.32 log10 K; log K of transfer, water to solvent ([3]; Butan-1-ol, 25 C): 1.37 log10 K; log K of transfer, water to solvent ([3]; Butan-2-ol, 25 C): 1.31 log10 K; log K of transfer, water to solvent ([3]; Methanol, 25 C): 1.47 log10 K

Second part, led by results:

log K of transfer, water to solvent [1] [log10 K]	log K of transfer, gas to solvent ([2]; Benzene, 25 C) [log10 K]	log K of transfer, gas to solvent ([2]; CCl4, 25 C) [log10 K]	log K of transfer, gas to solvent ([2]; Chloroform, 25 C) [log10 K]	log K of transfer, gas to solvent ([2]; Hexadecane, 25 C) [log10 K]	log K of transfer, gas to solvent ([2]; Water, 25 C) [log10 K]	log K of transfer, water to solvent ([3]; CCl4, 25 C) [log10 K]	log K of transfer, water to solvent ([3]; Chloroform, 25 C) [log10 K]	log K of transfer, water to solvent ([3]; Hexadecane, 25 C) [log10 K]	log K of transfer, gas to solvent ([2]; Pentan-1-ol, 25 C) [log10 K]	log K of transfer, water to solvent ([3]; Pentan-1-ol, 25 C) [log10 K]	Structure (SMILES)	log K of transfer, gas to solvent ([2]; Butan-1-ol, 25 C) [log10 K]	log K of transfer, gas to solvent ([2]; Chlorobenzene, 25 C) [log10 K]	log K of transfer, gas to solvent ([2]; Hexane, 25 C) [log10 K]	log K of transfer, gas to solvent ([2]; Propan-1-ol, 25 C) [log10 K]	log K of transfer, water to solvent ([3]; Chlorobenzene, 25 C) [log10 K]	log K of transfer, water to solvent ([3]; Hexane, 25 C) [log10 K]	log K of transfer, water to solvent ([3]; Propan-1-ol, 25 C) [log10 K]	log K of transfer, gas to solvent ([2]; Propan-2-ol, 25 C) [log10 K]	log K of transfer, water to solvent ([3]; Propan-2-ol, 25 C) [log10 K]	further results
2.4	–	1.83	–	1.53	-1.01	2.84	–	2.54	1.47	2.48	C=CCC	1.47	–	1.83	1.47	–	2.83	2.48	1.45	2.46	log K of transfer, gas to solvent ([2]; 2-Methylpropan-1-ol, 25 C): 1.45 log10 K; log K of transfer, gas to solvent ([2]; 2-Methylpropan-2-ol, 25 C): 1.49 log10 K; log K of transfer, gas to solvent ([2]; 3-Methylbutan-1-ol, 25 C): 1.46 log10 K; log K of transfer, gas to solvent ([2]; Butan-2-ol, 25 C): 1.46 log10 K; log K of transfer, water to solvent ([3]; 2-Methylpropan-1-ol, 25 C): 2.46 log10 K; log K of transfer, water to solvent ([3]; 2-Methylpropan-2-ol, 25 C): 2.5 log10 K; log K of transfer, water to solvent ([3]; 3-Methylbutan-1-ol, 25 C): 2.47 log10 K; log K of transfer, water to solvent ([3]; Butan-1-ol, 25 C): 2.48 log10 K; log K of transfer, water to solvent ([3]; Butan-2-ol, 25 C): 2.47 log10 K
0.97	3.17	3.15	3.86	2.62	3.11	0.04	0.75	-0.492	–	–	CCCCN	–	3.06	–	–	-0.05	–	–	–	–	log K of transfer, gas to solvent ([2]; 1,2-Dichloroethane, 25 C): 3.29 log10 K; log K of transfer, gas to solvent ([2]; Cyclohexane, 25 C): 2.62 log10 K; log K of transfer, gas to solvent ([2]; Di-n-butyl ether, 25 C): 2.68 log10 K; log K of transfer, gas to solvent ([2]; Octan-1-ol, 25 C): 3.61 log10 K; log K of transfer, gas to solvent ([2]; Toluene, 25 C): 3.25 log10 K; log K of transfer, water to solvent ([3]; 1,2-Dichloroethane, 25 C): 0.18 log10 K; log K of transfer, water to solvent ([3]; Benzene, 25 C): 0.06 log10 K; log K of transfer, water to solvent ([3]; Cyclohexane, 25 C): -0.488 log10 K; log K of transfer, water to solvent ([3]; Di-n-butyl ether, 25 C): -0.43 log10 K; log K of transfer, water to solvent ([3]; Octan-1-ol(dry), 25 C): 0.5 log10 K; log K of transfer, water to solvent ([3]; Toluene, 25 C): 0.14 log10 K
1.97	5.39	4.72	5.56	4.31	4.5	0.22	1.06	-0.188	–	–	Cc1ccc(O)cc1	–	5.3	4.16	–	0.8	-0.34	–	–	–	log K of transfer, gas to solvent ([2]; 1,2-Dichloroethane, 25 C): 5.68 log10 K; log K of transfer, gas to solvent ([2]; Cyclohexane, 25 C): 4.36 log10 K; log K of transfer, gas to solvent ([2]; Dichloromethane, 25 C): 5.65 log10 K; log K of transfer, gas to solvent ([2]; Perfluoroalkane, 25 C): 2.67 log10 K; log K of transfer, water to solvent ([3]; 1,2-Dichloroethane, 25 C): 1.18 log10 K; log K of transfer, water to solvent ([3]; Benzene, 25 C): 0.89 log10 K; log K of transfer, water to solvent ([3]; Cyclohexane, 25 C): -0.14 log10 K; log K of transfer, water to solvent ([3]; Dichloromethane, 25 C): 1.15 log10 K; log K of transfer, water to solvent ([3]; Perfluoroalkane, 25 C): -1.83 log10 K
